Tests used:
[1] = Liquid, Ebulliometric method (Recirculating still)
[2] = refractive index (Na D-line) (dimensionless); xn = mol fraction of the nth substance listed; conditions: 293.15 K, 101 kPa, Liquid, Standard Abbe refractometry

CCCCO [butan-1-ol]
[1]
Conditions	vapor or sublimation pressure [kPa]
356.35 K	25.3
359.45 K	29.3
362.95 K	33.5
368.6 K	42.8
373.45 K	52.5
377.3 K	61.2
381.9 K	72.8
386.05 K	84.9
391.95 K	105.3
395.8 K	120.1

CCCCO [butan-1-ol] + CCCO
[2]
Conditions	refractive index
x2 = 0	1.3992
x2 = 0.0852	1.3979
x2 = 0.1369	1.3971
x2 = 0.1987	1.3962
x2 = 0.2741	1.395
x2 = 0.3521	1.3939
x2 = 0.4218	1.3928
x2 = 0.5	1.3916
x2 = 0.5742	1.3905
x2 = 0.6588	1.3892
x2 = 0.7123	1.3884
x2 = 0.7986	1.3871
x2 = 0.862	1.3862
x2 = 0.936	1.385

CCCO [propan-1-ol]
[1]
Conditions	vapor or sublimation pressure [kPa]
337.95 K	25.6
341.35 K	30.1
346.15 K	37.4
350.8 K	46
353.25 K	51.1
357.35 K	60.7
362.45 K	74.7
366.25 K	86.8
370.4 K	101.8
373.65 K	114.9

CCCO [propan-1-ol] + CCCCO
Conditions	refractive index
[2], x1 = 1	1.3841

— the NIST ThermoML archive (doi:10.1016/j.jct.2010.02.001)
